Laboratory results taken from PMC11093748, “De novo identification of CD4^+ T cell epitopes” (Nature Methods, 2024).
Where “and” joins values, the source holds several entries; their conditions need not be identical. Equal values may be shown once.

Tests used:
Assay in all cases: I-Ag7 SABR-II library screen, enrichment score
Assay type in all cases: cell-based, mouse
TCR40 = conditions: I-Ag7 SABR-II library PZ101, CD4 TCR 40; TCR_Mean of 3 replicates minus PREDICTED_TCR (slope 0.959981, intercept 9.82052e-6)
Text: (§1) We then asked whether SABR-IIs could be used to present a library of epitopes for CD4^+ T cell antigen discovery. To that end, we constructed a SABR-II library to present epitopes derived from pancreatic islets in I-Ag7 by curating a list of 4,075 published epitopes from the Immune Epitope Database (iedb.org)[50] and a study by Wan et al.[51] (Supplementary Table 1). Of note, this defined library consisted of unmodified epitopes from endogenous proteins, synthetic mimotopes, deamidated epitopes and hybrid insulin peptides (HIPs) that arise from post-translational fusion and are not genetically encoded in vivo[52],[53]. The epitope library was inserted into the I-Ag7 SABR-II backbone through pooled oligonucleotide synthesis, amplification and ligation-free cloning (Extended Data Fig. 3a). The I-Ag7 SABR-II-library was then expressed in NFAT–GFP Jurkat cells. We confirmed that after sequencing, the library accounted for a mean of 708 reads per epitope (Extended Data Fig. 3b). As a proof of concept, we performed co-incubation assays with Jurkat cells expressing the BDC2.5 TCR and sorted the top 1–2% of GFP^+CD69^+ cells at a rate of ~20 min per replicate with three replicates per TCR. We extracted the genomic DNA from sorted cells, amplified the SABR portion of the integrated proviruses and subjected the amplicons to Illumina sequencing (Extended Data Fig. 3c,d). The 1–2% sort gate represents >50-fold enrichment of cognate epitopes with minimal loss of signal (Extended Data Fig. 3e–h). Sequence reads were aligned to the I-Ag7 SABR-II backbone and the corresponding epitopes were scored based on their read counts. For each TCR under investigation, an enrichment score (ES) was determined for all the epitopes in a library. In each experiment, three replicates of a sort with TCR-expressing Jurkat cells were performed and reads were counted post-sequencing. In addition, three replicates of the unsorted library were also sequenced. A linear regression model was built using the unsorted library counts and used to determine the expected abundance of each epitope in the library. The ES was calculated based on the difference between the measured and the expected abundance of each epitope on a per-TCR basis (Fig. 1e). Based on ES values, two quantitative thresholds were used to determine putative cognate epitopes of a given TCR. A high-confidence zone containing clear outliers with a high ES and a low-confidence zone containing weak outliers with a moderately high ES were determined (Fig. 1e). This two-tiered strategy was used to call putative hits from screens. All the top-scoring epitopes for the BDC2.5 TCR were known BDC2.5 ligands containing the WXRM(D/E) motif (Fig. 1f,g, enriched ligands in red), a well-characterized trait of the BDC2.5 TCR[43],[54]–[56]. Across several independent experiments there was limited variation in ES values for the same TCRs and several epitopes fell into high- or low-confidence zones consistently (Extended Data Fig. 4a). Using a different TCR that was isolated from NOD mice, 4-8Ins[57], which recognized the InsB9:23 epitope ([…]), we observed a similar pattern of ES for cognate epitopes (Extended Data Fig. 4b).
(§2) We performed systematic screening of the cloned TCRs against the I-Ag7 SABR-II library. Several TCRs along with a positive control (such as BDC2.5 or 4-8Ins) were screened individually against the library for each sort (Extended Data Fig. 6a and Supplementary Table 4). High- and low-confidence ES zones for each screened TCR were defined by the ES values of the control TCR’s cognate epitopes. For all putative cognate epitopes, single SABR-IIs were constructed, expressed in NFAT–GFP Jurkat cells and used for co-incubation with the corresponding TCRs. Co-incubation assays that yielded a GFP signal higher than that obtained in assays with no TCR were determined to be positive and the epitopes deemed true cognate ligands (Extended Data Fig. 6b,c). […]

TCR17C = conditions: TCR_Mean minus PREDICTED_TCR (from LIB_Mean, SLOPE 0.897918, INTERCEPT 2.50509e-5), PZ52
Text: as §1, §2

TCR6B = conditions: sheet TCR6B-PZ37; ES = TCRObserved - TCRPredicted; TCRPredicted = LIBObserved x SLOPE + INTERCEPT; SLOPE 0.908569, INTERCEPT 2.24372e-5
Text: as §1, §2

TCR34 = conditions: TCR_Mean minus PREDICTED_TCR (slope 0.916696, intercept 2.04427e-5 on LIB_Mean), TCR 34, run PZ57
Text: as §1, §2

TCR8 = conditions: TCR_Mean minus PREDICTED_TCR (from LIB_Mean, SLOPE 0.946603, INTERCEPT 1.31036e-5), PZ47
Text: as §1, §2

TCR5 = system: TCR5
Text: as §1, §2

TCR17B = conditions: TCR_Mean minus PREDICTED_TCR (from LIB_Mean, SLOPE 0.911347, INTERCEPT 2.17553e-5), PZ52
Text: as §1, §2

TCR9 = conditions: TCR_Mean minus PREDICTED_TCR (from LIB_Mean, SLOPE 0.950453, INTERCEPT 1.21587e-5), PZ47
Text: as §1, §2

TCR18 = system: TCR18
Text: as §1, §2

TCR7 = system: TCR7
Text: as §1, §2

[1] = sheet TCR5-PZ44, ES = TCRObserved - TCRPredicted, TCRPredicted = LIBObserved x SLOPE + INTERCEPT, SLOPE 0.90726, INTERCEPT 2.27584e-5
[2] = I-Ag7 library, one biological experiment
[3] = TCR18, TCR_Mean minus PREDICTED_TCR (from LIB_Mean, SLOPE 0.92089, INTERCEPT 1.94136e-5), PZ52
[4] = sheet TCR7-PZ47, ES = TCRObserved - TCRPredicted, TCRPredicted = LIBObserved x SLOPE + INTERCEPT, SLOPE 0.961246, INTERCEPT 9.5102e-6

Row | Sequence | Enrichment score (TCR40) | Enrichment score (TCR17C) | Enrichment score (TCR6B) | Enrichment score (TCR34) | Enrichment score (TCR8) | Enrichment score (TCR5; [1]) | Enrichment score (TCR17B) | Enrichment score (TCR9) | Enrichment score (TCR18; [2]) | Enrichment score (TCR18; [3]) | Enrichment score (TCR7; [2]) | Enrichment score (TCR7; [4]) | Enrichment score (TCR5; [2])
1 | ALVREGLRNVAAGANP | -9.821e-6 | -2.514e-5 | -2.303e-5 | -2.044e-5 | -1.329e-5 | -2.1402e-5 | -2.185e-5 | -9.186e-6 | -1.951e-5 | -1.951e-5 | -9.699e-6 | -9.699e-6 | 
2 | AKAAVEEGIVAGGGV | -1.429e-5 | -5.707e-5 | 0.0001193 | 3.575e-5 | 4.499e-5 | 4.678e-5 | 0.0004148 | 0.0002844 | -0.0001034 | -0.0001034 | 0.0001251 | 0.0001251 | 
3 | AEKVRNLPAGHGLNAQ | -9.416e-5 | 2.049e-5 | -0.0001883 | 6.942e-5 | -5.38e-5 | 1.968e-5 | -3.983e-5 | 2.252e-5 | 0.0001149 | 0.0001149 | 5.397e-5 | 5.397e-5 | 
4 | AAVEEGIVAGGGVTLL | 6.713e-5 | -3.436e-5 | 4.397e-5 | -0.0002018 | -2.679e-5 | 2.521e-5 | -0.0001643 | -0.0001033 | -8.9534e-5 | -8.9534e-5 | 1.142e-5 | 1.142e-5 | 2.521e-5 and 3.881e-5
5 | AGGVAVIKAGAATEV | 8.867e-6 | -0.0001062 | 0.0001547 | -0.0001037 | -5.809e-5 | -1.203e-5 | 5.455e-5 | -1.065e-5 | -7.134e-5 | -7.134e-5 | -2.964e-5 | -2.964e-5 | 
